Measurements published in PubChem BioAssay AID1845201 (Molecular Pharmacology Branch, DTP, NCI, 2023).
Several values for one entry are separate records, joined by “and”; a condition that tells them apart may be missing. Equal entries are not always repeated.

Test system: COR L88 complex tumor spheroid viability
Assay: Anticancer human tumor COR L88 cell line growth inhibition;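 also: compound exposure lasted 7 days before viability readout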;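 as to viability, T/C: percent of DMSO vehicle-treated spheroids = 100%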
Conditions: for viability, T/C: stronger effect = lower value
Outline: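 Complex tumor spheroids combined malignant cells with endothelial cells and mesenchymal stem cells. DNA-damaging drugs and DNA repair inhibitors were tested alone and in combination, at half-log dilutions down from clinical Cmax (top 10 microM if Cmax unknown), 0.25% DMSO final.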

[1] = curve of first compound, second compound 1 µM
[2] = curve of first compound, second compound 3.16 µM
[3] = curve of first compound, second compound 10 µM
[4] = curve of first compound, second compound 31.6 µM
[5] = curve of first compound, second compound 100 µM

## CNCc1ccc(-c2cc(-c3nc(-c4ccc(S(=O)(=O)C(C)C)cc4)cnc3N)on2)cc1 + Cn1nnc2c(C(N)=O)ncn2c1=O
[1]
  IC50: 0.618 µM
[2]
  IC50: 0.639 µM
[3]
  IC50: 0.463 µM
[4]
  IC50: 0.448 µM
[5]
  IC50: 0.386 µM
Second compound 1 µM, first compound 0.00949 µM
  viability, T/C: 99.9%
Second compound 1 µM, first compound 0.03 µM
  viability, T/C: 97.6%
Second compound 1 µM, first compound 0.0949 µM
  viability, T/C: 102%
Second compound 1 µM, first compound 0.3 µM
  viability, T/C: 72.1%
Second compound 1 µM, first compound 0.949 µM
  viability, T/C: 36.8%
Second compound 1 µM, first compound 3 µM
  viability, T/C: 12.9%
Second compound 3.16 µM, first compound 0.00949 µM
  viability, T/C: 92.9%
Second compound 3.16 µM, first compound 0.03 µM
  viability, T/C: 107%
Second compound 3.16 µM, first compound 0.0949 µM
  viability, T/C: 112%
Second compound 3.16 µM, first compound 0.3 µM
  viability, T/C: 81.3%
Second compound 3.16 µM, first compound 0.949 µM
  viability, T/C: 33.6%
Second compound 3.16 µM, first compound 3 µM
  viability, T/C: 11%
Second compound 10 µM, first compound 0.00949 µM
  viability, T/C: 87.4%
Second compound 10 µM, first compound 0.03 µM
  viability, T/C: 99.7%
Second compound 10 µM, first compound 0.0949 µM
  viability, T/C: 95.3%
Second compound 10 µM, first compound 0.3 µM
  viability, T/C: 63.8%
Second compound 10 µM, first compound 0.949 µM
  viability, T/C: 25.9%
Second compound 10 µM, first compound 3 µM
  viability, T/C: 10.8%
Second compound 31.6 µM, first compound 0.00949 µM
  viability, T/C: 80.7%
Second compound 31.6 µM, first compound 0.03 µM
  viability, T/C: 90.9%
Second compound 31.6 µM, first compound 0.0949 µM
  viability, T/C: 101%
Second compound 31.6 µM, first compound 0.3 µM
  viability, T/C: 62.5%
Second compound 31.6 µM, first compound 0.949 µM
  viability, T/C: 25.1%
Second compound 31.6 µM, first compound 3 µM
  viability, T/C: 11.2%
Second compound 100 µM, first compound 0.00949 µM
  viability, T/C: 78.3%
Second compound 100 µM, first compound 0.03 µM
  viability, T/C: 81%
Second compound 100 µM, first compound 0.0949 µM
  viability, T/C: 76.5%
Second compound 100 µM, first compound 0.3 µM
  viability, T/C: 58%
Second compound 100 µM, first compound 0.949 µM
  viability, T/C: 21.3%
Second compound 100 µM, first compound 3 µM
  viability, T/C: 9.59%

## CC1COCCN1c1cc(-c2ccnn2C)c2ccnc(-c3ccn[nH]3)c2n1 (configuration not stated) + COc1cc2c(cc1O)CCNC21CSC2c3c(OC(C)=O)c(C)c4c(c3C(COC1=O)N1C(O)C3Cc5cc(C)c(OC)c(O)c5C(C21)N3C)OCO4
Curve of first compound, second compound 30 pM
  IC50: 0.111 µM
Curve of first compound, second compound 94.9 pM
  IC50: < 0.0316 µM
Curve of first compound, second compound 0.0003 µM
  IC50: < 0.0316 µM
Curve of first compound, second compound 0.000949 µM
  IC50: < 0.0316 µM
Curve of first compound, second compound 0.003 µM
  IC50: < 0.0316 µM
Second compound 30 pM, first compound 0.0316 µM
  viability, T/C: 72.1%
Second compound 30 pM, first compound 0.1 µM
  viability, T/C: 49.5%
Second compound 30 pM, first compound 0.316 µM
  viability, T/C: 36.7%
Second compound 30 pM, first compound 1 µM
  viability, T/C: 20.3%
Second compound 30 pM, first compound 3.16 µM
  viability, T/C: 7.72%
Second compound 30 pM, first compound 10 µM
  viability, T/C: 3.13%
Second compound 94.9 pM, first compound 0.0316 µM
  viability, T/C: 41.8%
Second compound 94.9 pM, first compound 0.1 µM
  viability, T/C: 36.9%
Second compound 94.9 pM, first compound 0.316 µM
  viability, T/C: 25.6%
Second compound 94.9 pM, first compound 1 µM
  viability, T/C: 17.2%
Second compound 94.9 pM, first compound 3.16 µM
  viability, T/C: 6.6%
Second compound 94.9 pM, first compound 10 µM
  viability, T/C: 2.46%
Second compound 0.0003 µM, first compound 0.0316 µM
  viability, T/C: 28.6%
Second compound 0.0003 µM, first compound 0.1 µM
  viability, T/C: 25.4%
Second compound 0.0003 µM, first compound 0.316 µM
  viability, T/C: 19.9%
Second compound 0.0003 µM, first compound 1 µM
  viability, T/C: 11%
Second compound 0.0003 µM, first compound 3.16 µM
  viability, T/C: 3.54%
Second compound 0.0003 µM, first compound 10 µM
  viability, T/C: 1.58%
Second compound 0.000949 µM, first compound 0.0316 µM
  viability, T/C: 6.86%
Second compound 0.000949 µM, first compound 0.1 µM
  viability, T/C: 7.07%
Second compound 0.000949 µM, first compound 0.316 µM
  viability, T/C: 3.61%
Second compound 0.000949 µM, first compound 1 µM
  viability, T/C: 2.02%
Second compound 0.000949 µM, first compound 3.16 µM
  viability, T/C: 0.7%
Second compound 0.000949 µM, first compound 10 µM
  viability, T/C: 0.25%
Second compound 0.003 µM, first compound 0.0316 µM
  viability, T/C: 0.56%
Second compound 0.003 µM, first compound 0.1 µM
  viability, T/C: 0.53%
Second compound 0.003 µM, first compound 0.316 µM
  viability, T/C: 0.53%
Second compound 0.003 µM, first compound 1 µM
  viability, T/C: 0.41%
Second compound 0.003 µM, first compound 3.16 µM
  viability, T/C: 0.58%
Second compound 0.003 µM, first compound 10 µM
  viability, T/C: 0.58%

## COc1cc(C)[nH]c(=O)c1CN1CCc2c(Cl)cc(C(OC)C3COC3)c(Cl)c2C1=O (configuration not stated)
Compound 0.0316 µM
  viability, T/C: 109% and 91.5% and 89.8%
Compound 0.1 µM
  viability, T/C: 100% and 89.6% and 97%
Compound 0.316 µM
  viability, T/C: 95.5% and 80.1% and 98.1%
Compound 1 µM
  viability, T/C: 89.2% and 76.7% and 91.4%
Compound 3.16 µM
  viability, T/C: 96.1% and 84.8% and 85.8%
Compound 10 µM
  viability, T/C: 92.2% and 75.5% and 90.1%
Curve of compound
  IC50: > 10 µM

## CC1COCCN1c1cc(-c2ccnn2C)c2ccnc(-c3ccn[nH]3)c2n1 (configuration not stated) + Cn1nnc2c(C(N)=O)ncn2c1=O
[1]
  IC50: 0.159 µM
[2]
  IC50: 0.0774 µM
[3]
  IC50: < 0.0316 µM
[4]
  IC50: < 0.0316 µM
[5]
  IC50: < 0.0316 µM
Second compound 1 µM, first compound 0.0316 µM
  viability, T/C: 80.7%
Second compound 1 µM, first compound 0.1 µM
  viability, T/C: 53.9%
Second compound 1 µM, first compound 0.316 µM
  viability, T/C: 41.1%
Second compound 1 µM, first compound 1 µM
  viability, T/C: 26.6%
Second compound 1 µM, first compound 3.16 µM
  viability, T/C: 11.2%
Second compound 1 µM, first compound 10 µM
  viability, T/C: 5.06%
Second compound 3.16 µM, first compound 0.0316 µM
  viability, T/C: 59%
Second compound 3.16 µM, first compound 0.1 µM
  viability, T/C: 47.8%
Second compound 3.16 µM, first compound 0.316 µM
  viability, T/C: 33.9%
Second compound 3.16 µM, first compound 1 µM
  viability, T/C: 22.4%
Second compound 3.16 µM, first compound 3.16 µM
  viability, T/C: 11.9%
Second compound 3.16 µM, first compound 10 µM
  viability, T/C: 4.44%
Second compound 10 µM, first compound 0.0316 µM
  viability, T/C: 46.1%
Second compound 10 µM, first compound 0.1 µM
  viability, T/C: 36.3%
Second compound 10 µM, first compound 0.316 µM
  viability, T/C: 29.4%
Second compound 10 µM, first compound 1 µM
  viability, T/C: 18.4%
Second compound 10 µM, first compound 3.16 µM
  viability, T/C: 9.76%
Second compound 10 µM, first compound 10 µM
  viability, T/C: 3.5%
Second compound 31.6 µM, first compound 0.0316 µM
  viability, T/C: 41.7%
Second compound 31.6 µM, first compound 0.1 µM
  viability, T/C: 33.8%
Second compound 31.6 µM, first compound 0.316 µM
  viability, T/C: 24.1%
Second compound 31.6 µM, first compound 1 µM
  viability, T/C: 16.8%
Second compound 31.6 µM, first compound 3.16 µM
  viability, T/C: 7.93%
Second compound 31.6 µM, first compound 10 µM
  viability, T/C: 3.99%
Second compound 100 µM, first compound 0.0316 µM
  viability, T/C: 34.3%
Second compound 100 µM, first compound 0.1 µM
  viability, T/C: 27.8%
Second compound 100 µM, first compound 0.316 µM
  viability, T/C: 21.5%
Second compound 100 µM, first compound 1 µM
  viability, T/C: 12.3%
Second compound 100 µM, first compound 3.16 µM
  viability, T/C: 6.89%
Second compound 100 µM, first compound 10 µM
  viability, T/C: 3.01%
